Data set [1] deals with system I cytochrome c biogenesis (heme acquisition). Kind of data set: Exogenous heme addition, E. coli ΔccmΔhemA (RK105) with system I, pRGK332 and pHPEX2. In kind it is cell-based. As to the method: (§1) Cultures of RK105 (E. coli ΔccmΔhemA) harboring pRGK333 (system I), pRGK332 (cytochrome c4:6×His), and pHPEX2 (Varnado and Goodwin, 2004) or pRGK348 (system II) and pRGK332 were grown in LB overnight in the presence of 300 μM aminolevulinic acid (ALA). 100 mL cultures were started from the overnight culture with a 1% inoculum in LB devoid of ALA for two and one-half hours. After two and one-half hours, the 100 mL cultures had exhausted their cellular supply of ALA and required exogenous heme (or ALA) for further growth. The ALA exhausted cultures were divided into 5 mL aliquots to which IPTG (1 mM, to induce the synthesis of the system I proteins) and heme (0 μM to 100 μM) (Sigma) were added. It was discovered that heme at greater than 60 μM would precipitate over time with no IPTG (1 mM) present and at greater than 100 μM in the presence of IPTG. After one hour, arabinose (0.2% to induce the synthesis of cytochrome c4:6×His) was added and cultures were grown for an additional three hours. Cells were harvested and protein was extracted using B-PER as previously described (Feissner et al., 2006). […]
Heme stains were performed as described (Feissner et al., 2003) using SuperSignal Femto chemiluminescent substrate (Pierce). Heme stain quantitation used LOLITA II (Low Light Test Array; raytestUSA; Wilmington, N.C.) for standardization of light intensity detection on an LAS1000plus Luminescent Image Analyzer CCD camera system. […] Chemiluminescence from heme stains and Western blots were detected using an LAS-1000plus Luminescent Image Analyzer CCD camera system (Fujifilm). Protein concentrations were determined using the BCA assay (Pierce) using BSA as a standard. […] Protein concentrations were determined with the BCA assay kit (Pierce) using BSA as a standard.
To directly examine the difference in heme acquisition between systems I and II, varying concentrations of exogenous heme were supplied to E. coli ΔccmΔhemA, expressing ChuA with pRGK332 and either system plasmid. […] The cytochrome c4 acts as a trap, allowing quantitation of the levels of heme that have fluxed through each system. […]

Data set [2] has as its system system II (CcsBA) cytochrome c biogenesis (heme acquisition). Kind of data set: Exogenous heme addition, E. coli ΔccmΔhemA (RK105) with system II (CcsBA), chuA and pRGK332. The class given is cell-based. The note with it: averaged over 3 trials, Hill curve fit, read-out: heme concentration at which holocytochrome c4:6×His levels reached 50% of maximum synthesis. As to the method:
Cultures of RK105 (E. coli ΔccmΔhemA) harboring pRGK333 (system I), pRGK332 (cytochrome c4:6×His), and pHPEX2 (Varnado and Goodwin, 2004) or pRGK348 (system II) and pRGK332 were grown in LB overnight in the presence of 300 μM aminolevulinic acid (ALA). 100 mL cultures were started from the overnight culture with a 1% inoculum in LB devoid of ALA for two and one-half hours. After two and one-half hours, the 100 mL cultures had exhausted their cellular supply of ALA and required exogenous heme (or ALA) for further growth. The ALA exhausted cultures were divided into 5 mL aliquots to which IPTG (1 mM, to induce the synthesis of the system I proteins) and heme (0 μM to 100 μM) (Sigma) were added. […]
Heme stains were performed as described (Feissner et al., 2003) using SuperSignal Femto chemiluminescent substrate (Pierce). Heme stain quantitation used LOLITA II (Low Light Test Array; raytestUSA; Wilmington, N.C.) for standardization of light intensity detection on an LAS1000plus Luminescent Image Analyzer CCD camera system. […] Chemiluminescence from heme stains and Western blots were detected using an LAS-1000plus Luminescent Image Analyzer CCD camera system (Fujifilm). Protein concentrations were determined using the BCA assay (Pierce) using BSA as a standard. […] Protein concentrations were determined with the BCA assay kit (Pierce) using BSA as a standard. […]

Data set [3] can be described thus: Heme precipitation in culture medium. The class given is physicochemical. As to the method: as §1, with “2006). Cytochrome c4:6×His was purified from 200 μg of total protein over nickel affinity resin to eliminate free heme. 20 μL of each sample were subjected to SDS-PAGE, transferred to nitrocellulose, and heme stained as described above.” for “2006).”
The test system of a further data set is E. coli ΔccmΔhemA. Kind of data set: Growth of E. coli ΔccmΔhemA on exogenous heme, without or with the heme porin ChuA (pHPEX2). The class given is cell-based. As to the method: FIG. 13. Growth of E. coli DccmDhemA with exogenous heme. Overnight cultures of E. coli DccmDhemA or containing pHPEX2 and (A) pRGK333 or (B) pRGK334 were diluted into LB broth without ALA or heme. The cultures were incubated aerobically at 37° C. for two and one-half hours to exhaust the cultures for ALA. Heme was added at the indicated concentrations when noted and growth (A600) was measured. For reference, the growth of E. coli Dccm (wild-type) containing either pRGK333 or pRGK334 is shown (t).
To determine if exogenous heme rather than ALA could support growth, an overnight culture of E. coli ΔccmΔhemA, supplemented with 300 μM ALA, was used to inoculate [1% (v/v)] fresh LB medium containing different concentrations of heme (0 μM to 100 μM).
Since the outer membranes of some strains of E. coli are poorly permeable to heme, the heme porin from pHPEX2 (Varnado and Goodwin, 2004) was expressed. The tetracycline-resistant pHPEX2 expresses the gene for the heme receptor (chuA) from E. coli O157:H7 using the IPTG-inducible lacUV5 promoter. ChuA is a member of a class of relatively nonspecific enterobacterial heme receptors that are TonB-dependent and facilitate heme acquisition from the environment and recognize free heme and heme bound to a variety of proteins (see FIG. 11). Growth of E. coli ΔccmΔhemA containing either pRGK333 or pRGK334 and pHPEX2 was dependant on exogenous heme (see FIG. 13). […] The pHPEX2 also facilitates the heme-dependent production of the B. pertussis c4:6×His when the plasmids with system I or system II are present (see below).

For data set [4], the system named is system I cytochrome c biogenesis. Kind of data set: Heme competition with ZnPPIX inhibition, E. coli Δccm with system I, ChuA and cytochrome c4:Pho. The class given is cell-based. The note with it: grown with 12.5 μM ZnPPIX. As to the method:
FIG. 22. Western blot (A: lanes 1-7) and heme stain (B: lanes 1-5) indicating ZnPPIX competes with heme. Overnight cultures of E. coli Dccm containing pRGK333, pRGK331, and pHPEX2 were diluted into fresh LB broth containing […] ZnPPIX and grown to mid-log phase. IPTG (1 mM) was added and incubation continued for 30 minutes. Heme was added and incubation continued for 30 minutes. Arabinose (0.2%) was added for three hours to induce synthesis of cytochrome c4:PhoA and soluble B-PER protein extracts were prepared. The concentrations ([…]) of ZnPPIX and heme are given above each lane. Above the panel pSysI is pRGK333, pc4:PhoA is cytochrome c4:PhoA, and Dccm is E. coli Dcam.
ZnPPIX is inhibiting downstream of holoCcmE since this “heme reservoir” is no longer available for cytochrome c4 biogenesis. The WWD containing protein CcmF may the target for ZnPPIX (see FIG. 11). If the target for ZnPPIX is a heme binding protein (site), then exogenous heme should compete with this inhibition (i.e. ZnPPIX binding). […] The same heme stained polypeptides were confirmed to be full length cytochrome c4:Pho fusion proteins by Western blot (FIG. 22A, lane 1-5). ZnPPIX is a specific inhibitor of c-type cytochrome biogenesis by either system I or system II, but heme is able to compete with ZnPPIX inhibition.

iron protoporphyrin IX [heme]: the “heme concentration at which maximum synthesis of holocytochrome c4:6×His occurs” value in data set [1] (system I) is “less than 10 μM”. For the same substance, in data set [1] (system I compared with system II), the “apparent affinity for heme, system I versus system II” value is listed as “at least twenty fold higher”. Moreover, the EC50 in data set [1] (system I, averaged over 4 trials, Hill curve fit, read-out: heme concentration restoring holocytochrome c4:6×His levels to 50% of maximum) worked out at 1.9 µM; in data set [2] it was 54.4 µM. Further, the “heme concentration above which heme would precipitate over time” value was “greater than 100 μM” in data set [3] (in the presence of IPTG) and “greater than 60 μM” in data set [3] (no IPTG (1 mM) present). Besides, the “growth on exogenous heme” value with E. coli ΔccmΔhemA (chuA (pHPEX2) expressed, pRGK333 or pRGK334) is “growth to near wild-type levels”; in the data set with E. coli ΔccmΔhemA (heme 0 μM to 100 μM, no heme porin) it was “not detected until four to five days”. Further, the “holocytochrome c4:6×His production on exogenous heme” value in the data set on E. coli ΔccmΔhemA (no heme porin, system I or system II plasmid and c4:6×His reporter) is “no holocytochrome c4:6×His production was detected”. In data set [4], the “holocytochrome c4:Pho with increasing concentrations of additional heme” value is reported as “corresponding increase in holocytochrome c4:Pho”.

Source of the values: patent publication US8889378B2, “Cytochrome C synthesis inhibitors” (priority 2006, dated 2014).
